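Cells were grown in 96-well plates and exposed to each compound for 48 hours at five concentrations; endpoints were interpolated linearly between bracketing concentrations, or set to the highest concentration if not reached. GI50 is the concentration that inhibits growth by half. The concentration for full growth arrest is given as TGI.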 Bounds are passed on as bounds.

Among the test systems are HCC-2998 colon; NCI-H522 lung; CAKI-1 renal; SF-539 CNS; HL-60(TB) leukemia; OVCAR-5 ovarian; SW-620 colon; NCI-H226 lung; SF-268 CNS; SR leukemia.
Holding throughout (test): growth of human tumour cells (NCI), 48 h

For `CCOC(=O)c1cc2c3c(c(O)c(OC)c2s1)N(C(=O)c1cc2c4c(c(O)c(OC)c2s1)N(C(C)=O)CC4)CC3`, the TGI with HCC-2998 colon, with NCI-H522 lung, with CAKI-1 renal, with SF-539 CNS, in the test with HL-60(TB) leukemia and in the test with OVCAR-5 ovarian was more than 100 µM each time. In addition, the TGI with SW-620 colon, in the test on NCI-H226 lung and in the test with SF-268 CNS was more than 100 µM throughout.

As for `Cn1c2c(c3ccccc31)CCN(CCN1CCN(c3cccc(Cl)c3)CC1)C2=O`, the TGI in the test with NCI-H522 lung is more than 100 µM; in the test with SF-539 CNS, more than 100 µM; in the test with HL-60(TB) leukemia, 65.3 µM; in the test with SW-620 colon it was more than 100 µM; in the test on SF-268 CNS, more than 100 µM.

Consider `Cc1ccc(NC(=O)c2cc(S(=O)(=O)N3C(=O)NC(=O)NS3(=O)=O)c(S)cc2Cl)cc1`, for which the GI50 was 28.5 µM in the test with HCC-2998 colon; 36.1 µM in the test with NCI-H522 lung; 30.6 µM with CAKI-1 renal; 27.6 µM with SF-539 CNS; 56.5 µM in the test on OVCAR-5 ovarian; 31.6 µM with SW-620 colon. Also, the GI50 in the test on NCI-H226 lung is 30.6 µM; in the test on SF-268 CNS it was 38.1 µM. Further, the TGI in the test on HCC-2998 colon was 60.5 µM; in the test on NCI-H522 lung, more than 100 µM; in the test with CAKI-1 renal it was 60.9 µM; in the test with SF-539 CNS, 68 µM; with OVCAR-5 ovarian, more than 100 µM; in the test on SW-620 colon it was more than 100 µM. Further, the TGI with NCI-H226 lung is 76.6 µM; with SF-268 CNS, more than 100 µM.

Take `CC(C)CCC1(CCN)C(=O)NC(=O)NC1=O`: the TGI in the test on NCI-H522 lung was more than 100 µM; in the test with CAKI-1 renal, more than 100 µM; in the test with SF-539 CNS, more than 100 µM; in the test on SR leukemia it was more than 100 µM; with HL-60(TB) leukemia it was 66.7 µM; in the test on OVCAR-5 ovarian it was more than 100 µM. Further, the TGI in the test on SW-620 colon, in the test on NCI-H226 lung and in the test with SF-268 CNS was more than 100 µM in each case.

With `O=[N+]([O-])c1ccc(Sc2c3ccccc3nc3cc(Cl)ccc23)cc1`, the GI50 in the test with NCI-H522 lung, in the test on CAKI-1 renal, with OVCAR-5 ovarian, with SW-620 colon, with NCI-H226 lung and in the test with SF-268 CNS was more than 100 µM each time. Further, the TGI was more than 100 µM in the test with NCI-H522 lung; more than 100 µM in the test on CAKI-1 renal; 68.1 µM in the test with SR leukemia; more than 100 µM with HL-60(TB) leukemia; more than 100 µM in the test with OVCAR-5 ovarian; more than 100 µM with SW-620 colon. Besides, the TGI in the test with NCI-H226 lung and in the test on SF-268 CNS was more than 100 µM throughout.

As to `CCCCn1c(-c2ccc(C(=O)O/N=C(\N)c3ccc4c(c3)OCO4)cc2)nc(-c2ccccc2)c1-c1ccccc1`, the GI50 with HCC-2998 colon was 3.13 µM; in the test with NCI-H522 lung, 2.04 µM; in the test with CAKI-1 renal, 1.35 µM; in the test on SF-539 CNS it was 3 µM; in the test with HL-60(TB) leukemia, 0.603 µM; in the test on OVCAR-5 ovarian it was 4.77 µM. The results for the GI50 in the test with SW-620 colon, in the test on NCI-H226 lung and in the test on SF-268 CNS were 3.81 µM, 3.93 µM and 1.97 µM, respectively. Besides, the TGI is 22.5 µM in the test on HCC-2998 colon; 4.89 µM with NCI-H522 lung; 3.37 µM with CAKI-1 renal; 10.2 µM with SF-539 CNS; 2.75 µM in the test with HL-60(TB) leukemia; more than 100 µM in the test on OVCAR-5 ovarian. Further, the TGI is more than 100 µM in the test with SW-620 colon, more than 100 µM in the test on NCI-H226 lung and 4.37 µM in the test on SF-268 CNS.

For `C[C@H]1CCCC(O)C(O)[C@@H]2C[C@H](O[Si](C)(C)C(C)(C)C)C[C@H]2[C@H](O[Si](C)(C)C(C)(C)C)C(O)C(O)C(=O)O1` (stereo not given in full), the GI50 was 17.5 µM in the test with HCC-2998 colon; 23.5 µM with CAKI-1 renal; 14.4 µM with SF-539 CNS; 31.8 µM with OVCAR-5 ovarian; 94.7 µM in the test with SW-620 colon; 20 µM with SF-268 CNS. Also, the TGI in the test on HCC-2998 colon was 50.3 µM; in the test on CAKI-1 renal, 89.7 µM; with SF-539 CNS, 30.7 µM; with OVCAR-5 ovarian, more than 100 µM; in the test with SW-620 colon, more than 100 µM; with SF-268 CNS, more than 100 µM.

Regarding `Cc1ccccc1NC(=O)C1C(=O)N(c2ccccc2C)C(=O)/C1=N\NC(N)=S` (stereo not given), the TGI in the test with NCI-H522 lung, in the test on CAKI-1 renal, with SF-539 CNS, in the test with SR leukemia, with HL-60(TB) leukemia and in the test on SW-620 colon was more than 100 µM in each case. For the same compound, the TGI in the test with NCI-H226 lung and in the test with SF-268 CNS was more than 100 µM each time.

Turning to `O=C(O)c1ccc(C2C(=O)N[C@@H]3CCC[C@H]23)cc1` (stereo not given in full), the TGI in the test with HCC-2998 colon, with NCI-H522 lung, in the test with CAKI-1 renal, in the test with SF-539 CNS, in the test with HL-60(TB) leukemia and in the test on OVCAR-5 ovarian was more than 100 µM throughout. Besides, the TGI in the test on SW-620 colon, with NCI-H226 lung and with SF-268 CNS was more than 100 µM in each case.

Consider `COc1ccc(C(=O)c2ccc([As]=O)cc2)cc1` (stereo not given), for which the GI50 with HCC-2998 colon is 0.113 µM; in the test on NCI-H522 lung, 0.0902 µM; in the test with CAKI-1 renal, 0.064 µM; in the test with SF-539 CNS it was 0.0432 µM; with HL-60(TB) leukemia it was 0.106 µM; in the test on OVCAR-5 ovarian, 0.144 µM. The GI50 was 0.0313 µM with SW-620 colon, 0.169 µM in the test on NCI-H226 lung and 0.0348 µM in the test on SF-268 CNS. Besides, the TGI in the test on HCC-2998 colon came to 0.246 µM; with NCI-H522 lung it was 0.254 µM; with CAKI-1 renal, 0.201 µM; with SF-539 CNS, 0.163 µM; in the test with HL-60(TB) leukemia, 0.346 µM; in the test with OVCAR-5 ovarian, 0.292 µM. Further, the values for the TGI in the test with SW-620 colon, in the test on NCI-H226 lung and in the test on SF-268 CNS were 0.111 µM, 0.459 µM and 0.136 µM, respectively.

As for `CSc1nnc(COc2ccc(Cl)cc2)o1`, the TGI with NCI-H522 lung, with CAKI-1 renal, in the test on SF-539 CNS, in the test with OVCAR-5 ovarian, in the test on SW-620 colon and with SF-268 CNS was more than 100 µM each time.

In the case of `CCCCN(CCCC)C(=O)/C(CC(=O)c1cccc2ccccc12)=N\NC(=O)c1cc2ccccc2cc1O`, the TGI in the test with HCC-2998 colon is 43.8 µM; with HL-60(TB) leukemia, 16.5 µM; in the test on OVCAR-5 ovarian, 80.5 µM; in the test on SW-620 colon, more than 100 µM; in the test on NCI-H226 lung, 44.7 µM; in the test with SF-268 CNS, 70.9 µM.

These data come from PubChem BioAssay (NCI).
